Some test systems named below: DMS 273 small cell lung; RXF-631 renal; SNB-78 CNS; XF 498 CNS; HOP-18 NSCLC; DMS 114 small cell lung; MDA-N.
Common to all, as to assay: DTP human tumour cell line panel, 48 h

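Following 48 hours of exposure in 96-well plates, responses at five concentrations were used to interpolate endpoints linearly. Here, GI50 denotes the concentration required for 50% inhibition of growth. TGI is the concentration that stops growth completely.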 *1 amine or outer side, *2 acyl side, *3 side chain or, on linkers, in order; H or OH if unused. Where a SMILES comes first, the peptide text is derived from it. Bridges are numbered along the chain shown (N, C = ends). [ ]: non-standard residue; d: D form. ξ: configuration not given here. X4 = CCC(C)C(N[*:1])C(O)CC(=O)O[C@H](C(=O)C(C)C(=O)[*:2])C(C)C; NMeY = CN[C@@H](Cc1ccc(O)cc1)C(=O)O; X9 = O=C([C@@H]1CC(O)CN1[*:1])[*:2]; ξNMeL = CNC(CC(C)C)C(=O)O; ξT = CC(O)C(N)C(=O)O

Take `CN1C(c2ccccc2)CC(=Nc2ccccc2)CC1c1ccccc1` (stereo unspecified): the results for the TGI with DMS 273 small cell lung, with RXF-631 renal and with SNB-78 CNS were 22 µM, 67.6 µM and 37.2 µM, respectively.
`CCN=C1NN=C(c2ccccc2)c2cc(Cl)ccc2N1`: the TGI in the assay with XF 498 CNS is 45.2 µM; with HOP-18 NSCLC, more than 100 µM; with DMS 273 small cell lung it was 26.2 µM; with RXF-631 renal, 41.7 µM; in the assay on SNB-78 CNS it was 72 µM; in the assay with DMS 114 small cell lung, 43.9 µM.
`CC1C(=O)N=C2C(=CN(Cc3ccccc3)c3ccccc32)C(=O)N1C` (stereo unspecified) gave a TGI in the assay with MDA-N of more than 100 µM.
`CCOC(=O)/C(C#N)=C(O)/C(=C/c1ccccc1Cl)NC(=O)c1ccccc1`: the TGI in the assay on HOP-18 NSCLC, in the assay with DMS 273 small cell lung, in the assay on SNB-78 CNS and in the assay on DMS 114 small cell lung was more than 100 µM each time.
As to `C/C(=N\NC(=S)N(C)C)c1ncc[nH]1`, the TGI with XF 498 CNS was more than 100 µM; with HOP-18 NSCLC it was more than 100 µM; in the assay with DMS 114 small cell lung, 39.8 µM.
Consider `Cc1cccc(C(C)(C)C)c1NC(=O)CC1C(=O)Nc2ccccc2S1=O` (stereo unspecified), for which the TGI in the assay with XF 498 CNS, in the assay with DMS 273 small cell lung, in the assay on RXF-631 renal and in the assay on SNB-78 CNS was more than 100 µM each time.
As to `O=C1C(NCCO)=C(N2CC2)C(=O)C(NCCO)=C1N1CC1`, the TGI with MDA-N was more than 100 µM; with XF 498 CNS it was more than 100 µM; in the assay on HOP-18 NSCLC, more than 100 µM; with DMS 273 small cell lung, more than 40 µM; with SNB-78 CNS, more than 100 µM; in the assay on DMS 114 small cell lung, more than 50.9 µM.
In the case of `COc1ccccc1NC(=O)CC(=O)n1nc(C)c(N=Nc2ccccc2F)c1C`, the concentration for total growth inhibition (TGI) was more than 83.3 µM with XF 498 CNS; more than 100 µM in the assay on HOP-18 NSCLC; more than 100 µM in the assay with DMS 273 small cell lung; more than 31.6 µM in the assay on SNB-78 CNS; more than 100 µM with DMS 114 small cell lung.
`C/C(=N\NC(N)=S)c1ccc(/C(C)=N/NC(N)=S)cc1`: the TGI in the assay on XF 498 CNS, with HOP-18 NSCLC, in the assay on RXF-631 renal and with DMS 114 small cell lung was more than 100 µM throughout.
With `Cc1cc2c(C(C)C)c(O)c(O)c3coc(/c1=c1/c(C)cc4c(C(C)C)c(=O)c(=O)c5coc1c45)c32`, the TGI in the assay on XF 498 CNS turned out to be 17.4 µM; with DMS 273 small cell lung, 13.8 µM; with RXF-631 renal, 22 µM; in the assay with SNB-78 CNS it was 25.2 µM; in the assay on DMS 114 small cell lung it was 6.48 µM.
Turning to `C=CCOc1cc2c(cc1C(C)c1ccc(OC)cc1)OCO2` (stereo unspecified), the TGI in the assay with MDA-N is more than 100 µM; in the assay on XF 498 CNS it was 0.753 µM; with DMS 273 small cell lung it was more than 100 µM; in the assay on SNB-78 CNS it was more than 100 µM; in the assay on DMS 114 small cell lung it was 0.838 µM.
With `N=C(c1ccccc1)N1CCCCC1`, the total growth inhibition concentration (TGI) in the assay on HOP-18 NSCLC, with DMS 273 small cell lung, in the assay on SNB-78 CNS and in the assay on DMS 114 small cell lung was more than 100 µM in each case.
In the case of `COc1cc2c(cc1OC)-c1c(cnn1C1OC(COC(C)=O)C(OC(C)=O)C(OC(C)=O)C1OC(C)=O)CC2` (stereo unspecified), the TGI with DMS 273 small cell lung, in the assay with SNB-78 CNS and in the assay on DMS 114 small cell lung was more than 100 µM in each case.
Consider `C/C(=N\NC(N)=S)c1ccc2c(c1)OCO2`, for which the TGI in the assay with XF 498 CNS, with HOP-18 NSCLC, in the assay on RXF-631 renal, with SNB-78 CNS and in the assay with DMS 114 small cell lung was more than 100 µM throughout.
As to `CC(C)=CC(=O)Cc1nc2ccccc2[nH]c1=O`, the TGI with HOP-18 NSCLC, in the assay on DMS 273 small cell lung, in the assay with RXF-631 renal and in the assay with SNB-78 CNS was more than 100 µM each time.
For the compound `CSC(=S)N(C)c1nc(=[N+](C)C)ss1`, the TGI in the assay on XF 498 CNS, in the assay on HOP-18 NSCLC, with DMS 273 small cell lung, with SNB-78 CNS and in the assay with DMS 114 small cell lung was more than 100 µM each time.
With `Clc1ccc(C2=Nc3ccccc3SC(c3ccc(Cl)c(Cl)c3)C2)c(Cl)c1` (stereo unspecified), the TGI in the assay with XF 498 CNS is 26 µM; in the assay on DMS 273 small cell lung, 30 µM; with SNB-78 CNS, 35.5 µM; in the assay on DMS 114 small cell lung, 27.1 µM.
As for `O=S(=O)(O)C(F)(F)C(F)(F)C(F)(F)C(F)(F)F`, the TGI in the assay with XF 498 CNS, in the assay with HOP-18 NSCLC, in the assay on DMS 273 small cell lung and with DMS 114 small cell lung was more than 100 µM in each case.
As for `CCOC(=O)C1CCC/C1=N\N=C(N)N` (stereo unspecified) (tested in a mixture with another compound), in the assay on MDA-N, the TGI was more than 100 µM.
Take `Cc1cc2c(cn1)C(=O)OCC2`: the TGI in the assay on XF 498 CNS, with HOP-18 NSCLC, with SNB-78 CNS and in the assay with DMS 114 small cell lung was more than 100 µM in each case.
In the assay with MDA-N, `CC1(C)OC2C(CO)OC(n3ccc(=O)[nH]c3=O)C2O1` (stereo unspecified) returned a TGI of more than 100 µM.
For `CC1(C)CCSC(/C=C/c2ccccc2)=N1`, the TGI with MDA-N stood at 24.8 µM.
Take `O=c1c2cc(Br)ccc2oc2ccc(Br)cc12`: the TGI in the assay with MDA-N is more than 100 µM.
As for `COc1ccc(C2(CN(C)C)COc3cc(OC)c(OC)cc3C2=O)cc1OC` (stereo unspecified), the TGI in the assay with XF 498 CNS was more than 100 µM; in the assay with HOP-18 NSCLC, more than 100 µM; with RXF-631 renal, more than 100 µM; in the assay on SNB-78 CNS, more than 100 µM; in the assay with DMS 114 small cell lung, 78.3 µM.
Take `Cc1ccccc1C(C#N)/C(=N/NC(=O)c1cc2ccccc2cc1O)C(=O)Nc1cccc(Cl)c1` (stereo unspecified): the TGI in the assay on XF 498 CNS is 73.3 µM; in the assay on HOP-18 NSCLC, 73.4 µM; with DMS 273 small cell lung, 32.5 µM; in the assay on SNB-78 CNS, more than 100 µM; with DMS 114 small cell lung, 51.8 µM.
Regarding `C[C@]12CC[C@H]3[C@@H](CCC4=CC(=O)CC[C@@H]43)[C@@H]1CC[C@@H]2OC1(O)C(=O)c2ccccc2C1=O`, the TGI in the assay with MDA-N was 35.1 µM.
Same read-out and setting: with `CCC(C)C1NC(=O)C(NC(=O)C(CC(C)C)N(C)C(=O)[C@@H]2CC(O)CN2)C(C)OC(=O)[C@H](Cc2ccc(OC)cc2)N(C)C(=O)[C@@H]2CCCN2C(=O)[C@H](CC(C)C)NC(=O)C(C)C(=O)[C@H](C(C)C)OC(=O)CC1O` (stereo partly specified) (H-[X9][ξNMeL][ξT][X4]LP[NMeY](Me); ester 3-C) the figure was 0.106 µM.
On to `CCCOc1ccc(/C=C/c2cc(OC)c(OC)c(OC)c2)cc1`, for which the concentration for total growth inhibition (TGI) was 84.9 µM in the assay with XF 498 CNS; more than 100 µM in the assay with HOP-18 NSCLC; 11.7 µM in the assay on DMS 273 small cell lung; more than 100 µM in the assay with RXF-631 renal; more than 100 µM in the assay with SNB-78 CNS.
In the case of `O=C(CC(=O)Nc1ccc(Cl)cc1)NNCC(=O)Nc1nc(-c2ccccc2)cs1`, the concentration for total growth inhibition (TGI) in the assay on XF 498 CNS, with HOP-18 NSCLC, with DMS 273 small cell lung, in the assay with SNB-78 CNS and with DMS 114 small cell lung was more than 100 µM each time.
Compound `O=C(O)CC(Cc1ccc2c(c1)OCO2)C(=O)O` (stereo unspecified) returned a TGI with MDA-N of more than 100 µM.
The same measure, in the same setting: with `CCCCCCCCCCCCCCCCC(C(=O)O)C(O)(CC(=O)O)C(=O)O` (stereo unspecified) the figure was more than 100 µM; with `Cc1cccc(C(C)O)n1` (stereo unspecified), more than 100 µM.
Consider `CC[C@@]1(O)C(=O)NCc2c1cc1n(c2=O)Cc2cc3cc4c(cc3nc2-1)OCO4`, for which, in the assay on MDA-N, the GI50 was 3.23 µM and the TGI is more than 100 µM.
Take `COc1ncnc2c(NC3OC(CO)C(O)C3O)ncnc12` (stereo unspecified): the TGI turned out to be 22.8 µM in the assay on MDA-N; 7.84 µM in the assay on XF 498 CNS; 5.74 µM in the assay on DMS 273 small cell lung; 15.4 µM in the assay on RXF-631 renal; 71.9 µM with SNB-78 CNS; 1.09 µM in the assay with DMS 114 small cell lung.
Regarding `CCc1ccccc1NC(=O)CCc1nc(=S)[nH][nH]1`, the TGI in the assay on XF 498 CNS, in the assay with DMS 273 small cell lung, with RXF-631 renal, in the assay on SNB-78 CNS and in the assay with DMS 114 small cell lung was more than 100 µM in each case.
Turning to `CC1CCC2(OC1)OC1CC3C4CC=C5CC(OC6OC(CO)C(OC7OC(C)C(OC8OC(C)C(O)C(O)C8O)C(O)C7O)C(O)C6OC6OC(C)C(O)C(O)C6O)CCC5(C)C4CCC3(C)C1C2C` (stereo unspecified), in the assay with MDA-N, the TGI is 1.43 µM.
Consider `CC(=O)/C=C1/c2ccccc2N(C(C)=O)C1O` (stereo unspecified), for which the TGI in the assay with HOP-18 NSCLC, with DMS 273 small cell lung, in the assay with SNB-78 CNS and in the assay on DMS 114 small cell lung was more than 100 µM each time.

The values are drawn from PubChem BioAssay (NCI).
